Results from paper PMC4666608, “Metabolic Profiling of Chicken Embryos Exposed to Perfluorooctanoic Acid (PFOA) and Agonists to Peroxisome Proliferator-Activated Receptors” (PLoS ONE, 2015).
Marks after values point to notes of the source that are not given here.

Test system: chicken embryos
Experiment: Metabolic profiling of allantoic fluid (GC-MS, LC-MS, OPLS-DA)
Type: in vivo, Gallus gallus domesticus
Details: 150 μg/egg
Description: Controls were injected with 20 μL vehicle only (DMSO).
Plasma was collected and stored at -70°C.
Metabolites in allantoic fluid and blood plasma were analyzed using gas chromatography-mass spectrometry (GC-MS) and liquid chromatography-mass spectrometry (LC-MS) as described in S1 Methods. Prior to GC-MS and LC-MS analysis, allantoic fluid (100 μL) and blood plasma (50 μL) were extracted. To each sample, 900 μL (allantoic fluid) or 450 μL (blood plasma) of extraction buffer (90/10 v/v methanol:water) including all internal standards were added. Standards for GC-MS were proline, succinic acid, glutamic acid, salicylic acid, alpha-ketoglutarate, putrescine, myristic acid, hexadecanoic acid, cholesterol, and sucrose. Standards for LC-MS were Val-Tyr-Val, Leu-enkephalin, sulfadimethoxine and reserpine. Samples were homogenized by shaking in a bead mill at a frequency of 30 Hz for 3 minutes and proteins were precipitated at +4°C on ice. The samples were centrifuged at +4°C, 14000 rpm, for 10 min. Then, 200 μL supernatant was transferred to a GC microvial and 200 μL was transferred to an LC microvial, and solvents were evaporated. Samples from the four replicate experiments were analyzed using in chronological order and within each replicate experiment the run order of the individual samples was randomized.
Multivariate statistical analyses of metabolite profiles were performed using the software package SIMCA-P version 13.0 (Umetrics, Umeå, Sweden). Data was centered and scaled to variance 1 (UV scaling) prior to modelling. To reduce unintended systematic variation caused by sample processing and instrument drift, GC-MS and LC-MS metabolite amounts (expressed as the area under the chromatographic peak) were normalized by Orthogonal Partial Least Squares analysis (O2PLS) prior to multivariate data analysis. O2PLS finds common (predictive) and unique (orthogonal) variation in two data matrices. If applied to find the common variation between the data matrix containing the measured metabolite concentrations and a matrix containing only the internal standards, the only common (predictive) variation expected is due to the unintended systematic variation. By deleting the contribution of the predictive latent variables, that variation can be removed from the data. Models obtained after this normalization contain in general less latent variables, and this simplification helps when deciding on the number of latent variables to be used. Following normalization, GC-MS and LC-MS data were analyzed together. Initially, a global Principal Component Analysis (PCA) was performed to get an overview of groups and trends and to identify outliers. Projections to latent structures by means of Orthogonal Partial Least Squares Discriminant Analysis (OPLS-DA) was used to model the relationship between the X-matrix (metabolite concentrations) and the Y matrix (class, i.e. exposure group or sex), and to find x-variables that were related to class belonging. OPLS-DA is a supervised prediction and regression method that rotates the projection plane to find the maximum covariance between the data and the class assignment. All groups were first analyzed together in a 5-class OPLS-DA and then each exposure group was analyzed against the control group in a 2-class OPLS-DA. Sex differences were analyzed both using the whole data set and in each group separately using 2-class OPLS-DA, with females and males as the two classes. Only variables with 80% or more nonzero values were included in the statistical models. […] The validity of each model was also checked using CV-ANOVA (ANOVA of the cross-validated residuals). A significance level of p < 0.05 was used. For each model, R ^2 X, R ^2 Y and Q ^2 values were calculated, where R ^2 X is a measure of the fraction of x variation modeled in the extracted latent variables, R ^2 Y is a measure of the fraction of y variation modeled and Q ^2 is an estimate of the predictive ability of the model and is calculated by cross-validation. […]

[1] = GC, tentative 2-Oxovaleric acid

## CC(C)(Sc1ccc(CCN(CCCCC2CCCCC2)C(=O)NC2CCCCC2)cc1)C(=O)O [GW7647, reference compound]
GC
  Mean concentration relative to control, feature Win004_C08: 1.3***
  Mean concentration relative to control, feature Win005_C07: 1.4***
  Mean concentration relative to control, feature Win008_C06: 2.7***
  Mean concentration relative to control, feature Win022_C01: 2.3***
  Mean concentration relative to control, feature Win023_C06: 2.8***
  Mean concentration relative to control, feature win006_C01: 2.4***
GC, tentative 1-Aminocyclopropanecarboxylic acid
  Mean concentration relative to control, feature Win008_C07: 1.4***
GC, tentative 2-Oxoglutaric acid
  Mean concentration relative to control, feature Win023_C03: 2.5***
[1]
  Mean concentration relative to control, feature Win007_C09: 1.5***
  Mean concentration relative to control, feature Win008_C05: 1.6***
GC, tentative 3-Amino-2-piperidone
  Mean concentration relative to control, feature Win018_C04: 1.4***
GC, tentative 3-Hydroxybutanoic acid
  Mean concentration relative to control, feature Win007_C03: 1.3***
GC, tentative Cystathionine
  Mean concentration relative to control, feature Win042_C02: 2.1***
GC, tentative Ketoleucine
  Mean concentration relative to control, feature Win009_C03: 1.5***
GC, tentative Malonic acid
  Mean concentration relative to control, feature Win008_C04: 1.3***
GC, tentative Oxalic acid
  Mean concentration relative to control, feature Win005_C03: 0.8*
GC, tentative Succinic acid
  Mean concentration relative to control, feature Win013_C05: 1.3***
LC
  Mean concentration relative to control, feature 134.0239@1.1350567: 1.6*
  Mean concentration relative to control, feature 145.0538@3.072527: 1.8***
  Mean concentration relative to control, feature 147.0328@3.0722888: 1.7***
  Mean concentration relative to control, feature 160.0323@1.1950632: 1.1*
  Mean concentration relative to control, feature 173.0488@3.0734746: 1.8***
  Mean concentration relative to control, feature 176.0952@1.3890611: 0.6
  Mean concentration relative to control, feature 178.0428@1.7582192: 1.1
  Mean concentration relative to control, feature 180.0048@4.421465: 1.0
  Mean concentration relative to control, feature 189.1159@1.9209185: 0.8*
  Mean concentration relative to control, feature 197.0639@2.1181405: 1.2***
  Mean concentration relative to control, feature 201.012@3.046474: 1.5***
  Mean concentration relative to control, feature 202.0429@2.9548414: 1.1
  Mean concentration relative to control, feature 205.0533@4.421879: 1.0
  Mean concentration relative to control, feature 214.016@2.1190732: 1.3***
  Mean concentration relative to control, feature 226.0107@4.421457: 1.0
  Mean concentration relative to control, feature 236.0816@3.0720985: 1.7***
  Mean concentration relative to control, feature 241.0551@2.3510706: 1.2*
  Mean concentration relative to control, feature 243.1118@2.1537287: 1.0
  Mean concentration relative to control, feature 244.9972@4.421603: 1.0
  Mean concentration relative to control, feature 245.1563@2.2907295: 0.8*
  Mean concentration relative to control, feature 250.0981@3.072492: 1.8***
  Mean concentration relative to control, feature 262.0978@2.7961144: 2.6***
  Mean concentration relative to control, feature 263.0855@2.2847009: 2.1***
  Mean concentration relative to control, feature 270.0441@1.1407775: 0.9
  Mean concentration relative to control, feature 278.0928@3.0723689: 1.8***
  Mean concentration relative to control, feature 279.1248@2.796395: 3.2***
  Mean concentration relative to control, feature 280.1425@2.730277: 1.0
  Mean concentration relative to control, feature 288.1166@2.9551322: 1.2
  Mean concentration relative to control, feature 289.1012@3.249983: 1.8***
  Mean concentration relative to control, feature 289.173@7.5030584: 0.9
  Mean concentration relative to control, feature 294.1242@2.3692534: 1.0
  Mean concentration relative to control, feature 302.0508@3.0722616: 1.6***
  Mean concentration relative to control, feature 305.1682@5.353517: 1.7***
  Mean concentration relative to control, feature 305.1684@5.2955093: 1.6***
  Mean concentration relative to control, feature 308.073@4.4211636: 1.0
  Mean concentration relative to control, feature 310.1181@1.5090439: 1.1
  Mean concentration relative to control, feature 316.0389@3.0725708: 1.5***
  Mean concentration relative to control, feature 320.0626@3.0729218: 1.5***
  Mean concentration relative to control, feature 325.1114@2.1190624: 1.5***
  Mean concentration relative to control, feature 325.1115@2.3554378: 1.3*
  Mean concentration relative to control, feature 333.1335@2.8639288: 0.9
  Mean concentration relative to control, feature 333.2005@6.5291867: 1.3*
  Mean concentration relative to control, feature 335.1866@4.508565: 0.4***
  Mean concentration relative to control, feature 337.1651@1.8737898: 1.4***
  Mean concentration relative to control, feature 344.1424@2.348947: 1.3
  Mean concentration relative to control, feature 348.0553@3.0730357: 1.5***
  Mean concentration relative to control, feature 349.1651@2.4087605: 0.6***
  Mean concentration relative to control, feature 357.1997@6.9691257: 1.1
  Mean concentration relative to control, feature 371.1513@3.0009465: 1.2
  Mean concentration relative to control, feature 375.1819@3.672254: 0.6***
  Mean concentration relative to control, feature 394.167@3.9552917: 0.5***
  Mean concentration relative to control, feature 414.1482@2.118972: 1.5***
  Mean concentration relative to control, feature 466.0837@2.1187525: 1.5***
  Mean concentration relative to control, feature 488.0753@4.419585: 1.0
  Mean concentration relative to control, feature 498.1003@2.1184251: 1.4***
  Mean concentration relative to control, feature 507.1682@2.1238236: 1.4***
  Mean concentration relative to control, feature 580.1426@3.0726147: 2.3***
  Mean concentration relative to control, feature 582.1578@2.1747615: 1.7***
  Mean concentration relative to control, feature 588.1751@2.1182237: 1.5***
  Mean concentration relative to control, feature 594.1337@3.0724604: 2.3***
  Mean concentration relative to control, feature 604.1486@2.1174603: 1.5***
  Mean concentration relative to control, feature 623.183@2.1249466: 1.8***
  Mean concentration relative to control, feature 668.2625@6.4379454: 1.03*
LC, suggested C3H10NO4P
  Mean concentration relative to control, feature 155.0353@0.6447272: 0.6
LC, suggested C10H12N5O7P
  Mean concentration relative to control, feature 345.0497@1.1234403: 1.3*
LC, suggested C13H11N3O4S2
  Mean concentration relative to control, feature 337.0259@4.4213357: 1.0
LC, suggested C13H20N4O7
  Mean concentration relative to control, feature 344.1427@2.1164653: 1.5***
LC, suggested C13H25N5O5
  Mean concentration relative to control, feature 331.184@6.373359: 1.3*
LC, suggested C16H31N3O4S
  Mean concentration relative to control, feature 361.2026@5.6644735: 0.5***
